In patent US20260297109A1, “COMPOUNDS AS SUMO ACTIVATING ENZYME INHIBITORS” (WIGEN BIOMEDICINE TECHNOLOGY (SHANGHAI) CO., LTD., priority 2022, published 2026) one finds IC50 data, which are given here for 37 compounds.

The target in the first experiment is T1, SAE (Homo sapiens, UniProt Q9UBT2).
T1 construct: endogenous in cells; host or cells: HCT116
T1 sequence (Q9UBT2 1-640): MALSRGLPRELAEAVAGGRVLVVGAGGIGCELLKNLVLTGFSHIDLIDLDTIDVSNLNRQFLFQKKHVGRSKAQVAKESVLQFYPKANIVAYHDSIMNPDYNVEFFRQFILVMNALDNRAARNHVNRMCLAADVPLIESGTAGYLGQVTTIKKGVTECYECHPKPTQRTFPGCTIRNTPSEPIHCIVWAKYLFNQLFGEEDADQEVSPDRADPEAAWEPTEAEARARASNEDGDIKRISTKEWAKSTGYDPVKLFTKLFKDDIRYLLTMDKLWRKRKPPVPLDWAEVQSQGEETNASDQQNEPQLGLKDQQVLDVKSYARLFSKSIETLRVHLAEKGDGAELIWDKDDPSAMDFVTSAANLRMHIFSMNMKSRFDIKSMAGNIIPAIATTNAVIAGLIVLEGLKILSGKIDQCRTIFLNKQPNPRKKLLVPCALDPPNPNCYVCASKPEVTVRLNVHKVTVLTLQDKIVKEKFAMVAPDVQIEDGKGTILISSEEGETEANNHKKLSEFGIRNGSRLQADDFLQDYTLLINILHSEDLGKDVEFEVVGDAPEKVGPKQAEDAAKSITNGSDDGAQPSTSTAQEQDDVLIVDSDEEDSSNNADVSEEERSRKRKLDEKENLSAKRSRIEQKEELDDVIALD
T1 sequence (Q9UBE0 1-346): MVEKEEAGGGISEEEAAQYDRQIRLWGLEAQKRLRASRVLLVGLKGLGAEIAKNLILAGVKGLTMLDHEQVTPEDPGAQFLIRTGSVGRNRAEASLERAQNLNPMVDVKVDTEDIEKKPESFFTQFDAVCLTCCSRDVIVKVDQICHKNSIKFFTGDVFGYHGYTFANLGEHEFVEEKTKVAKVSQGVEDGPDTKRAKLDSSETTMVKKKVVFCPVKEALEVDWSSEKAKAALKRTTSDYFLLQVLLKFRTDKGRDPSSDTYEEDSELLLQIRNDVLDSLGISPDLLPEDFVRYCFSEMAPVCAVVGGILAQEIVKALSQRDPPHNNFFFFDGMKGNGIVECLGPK
The experiment is described as follows: SUMO IF: in vitro inhibitory activity assay against SAE in HCT116 cells (SUMO-2/3 immunofluorescence). The class given is cell-based. The settings on record: class symbols, 6 h at 37° C. In a few lines: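 HCT116 cells were treated with compound for 6 h at 37 °C, then PFA-fixed, Triton-permeabilised and BSA-blocked. They were stained overnight at 4 °C with anti-SUMO-2/3 (18H8) rabbit mAb (1:400), then with FITC anti-rabbit IgG (1:300). Fluorescence versus DMSO gave inhibition rate and IC50.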
`NS(=O)(=O)OC[C@H]1[C@H](F)[C@@H](Nc2ncncc2C(=O)c2cc3c(s2)CCC32NCCc3ccncc32)C[C@@H]1O` (stereo partly shown) [Compound 160] had an IC50 of 50 to 200 nM.
The compound `CC1=CC2(NCCc3ccc(F)cc32)c2cc(C(=O)c3cncnc3N[C@H]3C[C@H](O)[C@@H](COS(N)(=O)=O)[C@@H]3F)sc21` (stereo partly shown) [Compound 621] came in with an IC50 of 50 to 200 nM.
The compound `CC1CN[C@@]2(CCCc3sc(C(=O)c4cncnc4N[C@H]4C[C@H](O)[C@@H](COS(N)(=O)=O)[C@@H]4F)cc32)c2cc(Cl)ccc21` (stereo partly shown) [Compound 1021] had an IC50 above 200 nM.
Consider `CC1(C)CNC2(C=Cc3sc(C(=O)c4cncnc4N[C@H]4C[C@H](O)[C@@H](COS(N)(=O)=O)[C@@H]4F)cc32)c2cc(Cl)ccc21` (stereo partly shown) [Compound 1059], for which the IC50 was in the range of 50 to 200 nM.
On the same count and under the same terms, as for `NS(=O)(=O)OC[C@H]1[C@H](F)[C@@H](Nc2ncncc2C(=O)c2cc3c(s2)CCC[C@]32OCCc3ccc(Cl)cc32)C[C@@H]1O` [Compound 686], the figure is at most 50 nM; as for `Cc1ccc2c(c1)C(c1cc(C(=O)c3cncnc3N[C@H]3C[C@H](O)[C@@H](COS(N)(=O)=O)[C@@H]3F)sc1C)NCC2` (stereo partly shown) [Compound 241], 50 to 200 nM; as for `NS(=O)(=O)OC[C@H]1[C@H](F)[C@@H](Nc2ncncc2C(=O)c2cc3c(s2)CC[C@]32NC3(CC3)Cc3ccc(Cl)cc32)C[C@@H]1O` [Compound 705], 50 to 200 nM.
On to `NS(=O)(=O)OC[C@H]1[C@H](F)[C@@H](Nc2ncncc2C(=O)c2cc3c(s2)CSCC32NCCc3cnc(Cl)cc32)C[C@@H]1O` (stereo partly shown) [Compound 606], for which the IC50 fell in the range of 50 to 200 nM.
`NS(=O)(=O)OC[C@H]1[C@H](F)[C@@H](Nc2ncncc2C(=O)c2cc3c(s2)CCCC32NCCc3cc(Cl)ncc32)C[C@@H]1O` (stereo partly shown) [Compound 119] came in with an IC50 of 50 to 200 nM.
In turn, `NS(=O)(=O)OC[C@H]1[C@H](F)[C@@H](Nc2ncncc2C(=O)c2cc3c(s2)CCCC32NCCc3ccncc32)C[C@@H]1O` (stereo partly shown) [Compound 118] registered an IC50 of 50 to 200 nM.
Consider `NS(=O)(=O)OC[C@H]1[C@H](F)[C@@H](Nc2ncncc2C(=O)c2cc3c(s2)C=C[C@]32OCCc3ccc(F)cc32)C[C@@H]1O` [Compound 758], for which the IC50 was at most 50 nM.
`NS(=O)(=O)OC[C@H]1[C@H](F)[C@@H](Nc2ncncc2C(=O)c2cc3c(s2)CC[C@]32NCCc3ccc(C4CC4)cc32)C[C@@H]1O` [Compound 688] returned an IC50 of 50 to 200 nM.
`NS(=O)(=O)OC[C@H]1[C@H](F)[C@@H](Nc2ncncc2C(=O)c2cc3c(s2)CN(C2CC2)C[C@@]32OCCc3ccc(Cl)cc32)C[C@@H]1O` [Compound 742] displayed an IC50 above 200 nM.
`NS(=O)(=O)CC[C@H]1[C@H](F)[C@@H](Nc2ncncc2C(=O)c2cc3c(s2)C=C[C@@]32NCCc3ccc(Cl)cc32)C[C@@H]1O` [Compound 639] showed an IC50 above 200 nM.
For the compound `NS(=O)(=O)OC[C@H]1[C@H](F)[C@@H](Nc2ncncc2C(=O)c2cc3c(s2)CC=CC32NCCc3ccc(Cl)cc32)C[C@@H]1O` (stereo partly shown) [Compound 121], the IC50 was at most 50 nM.
`CC(C)N1Cc2sc(C(=O)c3cncnc3N[C@H]3C[C@H](O)[C@@H](COS(N)(=O)=O)[C@@H]3F)cc2C2(C1)OCCc1ccc(F)cc12` (stereo partly shown) [Compound 732] showed an IC50 of 50 to 200 nM.
For `NS(=O)(=O)OC[C@H]1[C@H](F)[C@@H](Nc2ncncc2C(=O)c2nc3c(s2)CSCC32NCCc3ccc(Cl)cc32)C[C@@H]1O` (stereo partly shown) [Compound 591], the IC50 was above 200 nM.
Turning to `NS(=O)(=O)OC[C@H]1[C@H](F)[C@@H](Nc2ncncc2C(=O)c2nc3c(s2)CSC[C@]32NCCc3ccc(Cl)cc32)C[C@@H]1O` [Compound 593], the IC50 is 50 to 200 nM.
`NS(=O)(=O)OC[C@H]1[C@H](F)[C@@H](Nc2ncncc2C(=O)c2cc3c(s2)CNC[C@]32NCCc3ccc(Cl)cc32)C[C@@H]1O` [Compound 584] returned an IC50 of 50 to 200 nM.
Compound `N#Cc1ccc2c(c1)C1(CCCc3sc(C(=O)c4cncnc4N[C@H]4C[C@H](O)[C@@H](COS(N)(=O)=O)[C@@H]4F)cc31)NCC2` (stereo partly shown) [Compound 94] had an IC50 of 50 to 200 nM.
`NS(=O)(=O)OC[C@H]1[C@H](F)[C@@H](Nc2ncncc2C(=O)c2cc3c(s2)CC[C@]32OCCc3ccccc32)C[C@@H]1O` [Compound 746] gave an IC50 of 50 to 200 nM.
On the same count and under the same terms, as for `CC1CN[C@@]2(C=Cc3sc(C(=O)c4cncnc4N[C@H]4C[C@H](O)[C@@H](COS(N)(=O)=O)[C@@H]4F)cc32)c2cc(Cl)ccc21` (stereo partly shown) [Compound 1054], the figure is above 200 nM; as for `CN1Cc2sc(C(=O)c3cncnc3N[C@H]3C[C@H](O)[C@@H](COS(N)(=O)=O)[C@@H]3F)cc2[C@]2(C1)OCCc1ccc(F)cc12` [Compound 722], at most 50 nM; as for `NS(=O)(=O)OC[C@H]1[C@H](F)[C@@H](Nc2ncncc2C(=O)c2cc3c(s2)CSC[C@@]32NCCc3ccc(Cl)nc32)C[C@@H]1O` [Compound 610], above 200 nM.
`Cc1sc(C(=O)c2cncnc2N[C@H]2C[C@H](O)[C@@H](COS(N)(=O)=O)[C@@H]2F)cc1C1NC=Cc2ccc(Cl)cc21` (stereo partly shown) [Compound 267] yielded an IC50 of 50 to 200 nM.
On to `NS(=O)(=O)OC[C@H]1[C@H](F)[C@@H](Nc2ncncc2C(=O)c2cc3c(s2)C(=O)CC32NCCc3ccc(Cl)cc32)C[C@@H]1O` (stereo partly shown) [Compound 630], for which the IC50 fell in the range of 50 to 200 nM.
The same measure, in the same setting: as for `Cc1sc(C(=O)c2cncnc2N[C@H]2C[C@H](O)[C@@H](CCS(N)(=O)=O)[C@@H]2F)cc1C1NCCc2ccc(Cl)cc21` (stereo partly shown) [Compound 990], the figure is above 200 nM; as for `NS(=O)(=O)OC[C@H]1[C@H](F)[C@@H](Nc2ncncc2C(=O)c2cc3c(s2)CCC[C@@]32NCC3(CC3)c3ccc(Cl)cc32)C[C@@H]1O` [Compound 616], above 200 nM.
The compound `NS(=O)(=O)OC[C@H]1[C@H](F)[C@@H](Nc2ncncc2C(=O)c2cc([C@H]3NCCc4ccc(Cl)cc43)c(C3CC3)s2)C[C@@H]1O` [Compound 986] had an IC50 above 200 nM.
On to `NS(=O)(=O)OC[C@H]1[C@H](F)[C@@H](Nc2ncncc2C(=O)c2cc3c(s2)CCC[C@]32NCCc3ccc(C4CC4)cc32)C[C@@H]1O` [Compound 667], for which the IC50 was 50 to 200 nM.
For `Cc1sc(C(=O)c2cncnc2N[C@H]2C[C@H](O)[C@@H](COS(N)(=O)=O)[C@@H]2F)cc1C1NC2(CC2)Cc2ccc(Cl)cc21` (stereo partly shown) [Compound 266], the 50% inhibitory concentration (IC50) is 50 to 200 nM.
The compound `CC(C)N1Cc2sc(C(=O)c3cncnc3N[C@H]3C[C@H](O)[C@@H](COS(N)(=O)=O)[C@@H]3F)cc2C2(C1)OCCc1ccc(Cl)cc12` (stereo partly shown) [Compound 735] came in with an IC50 of 50 to 200 nM.

Still in this experiment, the particulars now being: numeric values, 6 h at 37° C.
`Cc1sc(C(=O)c2cncnc2N[C@H]2C[C@H](O)[C@@H](COS(N)(=O)=O)[C@@H]2F)cc1[C@H]1NCCc2ccc(F)cc21` [Compound 237] gave an IC50 above 1000 nM.
Consider `NS(=O)(=O)OC[C@H]1[C@H](F)[C@@H](Nc2ncncc2C(=O)c2cc3c(s2)CSC[C@@]32NCCc3ccc(Cl)cc32)C[C@@H]1O` [Compound 301], for which the IC50 was above 1000 nM.
In turn, `NS(=O)(=O)OC[C@H]1[C@H](F)[C@@H](Nc2ncncc2C(=O)c2cc3c(s2)CC[C@]32NCCc3ccc(F)cc32)C[C@@H]1O` [Compound 135] returned an IC50 of 48.9 nM. That is a double-digit nanomolar value.
With `NS(=O)(=O)OC[C@H]1[C@H](F)[C@@H](Nc2ncncc2C(=O)c2cc3c(s2)C=C[C@@]32NCCc3ccc(Cl)cc32)C[C@@H]1O` [Compound 343], the IC50 was above 1000 nM.
The compound `C#CCN1Cc2sc(C(=O)c3cncnc3N[C@H]3C[C@H](O)[C@@H](COS(N)(=O)=O)[C@@H]3F)cc2[C@]2(C1)NCCc1ccc(Cl)cc12` [Compound 659] showed an IC50 of 20.3 nM.

By IC50 is commonly meant the midpoint of a concentration-inhibition curve. The low end stands for higher potency, the high end for lower potency.
